Molecular target: T1, ORAI1 (Homo sapiens, UniProt Q96D31)
T1 construct: ORAI1 transiently co-transfected with STIM1 in HEK293T cells; with STIM1
Test: patch-clamp of ICRAC in HEK293T cells co-expressing ORAI1 and STIM1
Type: cell-based

T1 sequence (Q96D31 whole entry): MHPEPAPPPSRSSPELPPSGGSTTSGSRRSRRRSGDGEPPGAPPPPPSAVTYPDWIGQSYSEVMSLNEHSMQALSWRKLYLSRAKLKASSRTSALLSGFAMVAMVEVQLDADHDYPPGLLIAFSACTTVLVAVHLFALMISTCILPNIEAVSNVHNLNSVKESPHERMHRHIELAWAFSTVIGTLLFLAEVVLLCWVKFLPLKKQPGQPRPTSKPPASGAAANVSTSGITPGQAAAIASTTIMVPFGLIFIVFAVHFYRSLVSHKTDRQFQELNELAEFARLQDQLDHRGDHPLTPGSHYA
T1 sequence (Q13586 23-685 partner): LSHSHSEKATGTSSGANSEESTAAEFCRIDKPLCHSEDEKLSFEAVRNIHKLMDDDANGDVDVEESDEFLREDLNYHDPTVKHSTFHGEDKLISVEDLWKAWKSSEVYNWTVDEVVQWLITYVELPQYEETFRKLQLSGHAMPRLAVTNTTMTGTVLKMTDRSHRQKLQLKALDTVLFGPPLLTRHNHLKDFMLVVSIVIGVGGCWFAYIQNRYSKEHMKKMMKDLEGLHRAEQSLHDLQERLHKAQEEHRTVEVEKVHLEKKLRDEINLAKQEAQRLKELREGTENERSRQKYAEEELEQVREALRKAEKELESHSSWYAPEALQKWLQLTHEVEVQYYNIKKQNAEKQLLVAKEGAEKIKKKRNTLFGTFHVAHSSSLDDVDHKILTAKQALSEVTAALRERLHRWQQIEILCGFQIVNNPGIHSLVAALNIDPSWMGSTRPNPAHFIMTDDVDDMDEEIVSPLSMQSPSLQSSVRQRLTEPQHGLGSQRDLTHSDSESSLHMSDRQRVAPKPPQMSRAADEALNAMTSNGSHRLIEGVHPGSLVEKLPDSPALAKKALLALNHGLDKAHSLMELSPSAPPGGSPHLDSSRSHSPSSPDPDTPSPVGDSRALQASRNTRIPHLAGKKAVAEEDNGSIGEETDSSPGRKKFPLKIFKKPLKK

C=C(C)[C@@H]1CC[C@]2(C(=O)O)CC[C@]3(C)[C@H](CC[C@@H]4[C@@]5(C)C[C@@H](O)[C@H](O)C(C)(C)[C@@H]5CC[C@]43C)[C@@H]12 [compound 1, alphitolic acid]
IC50: 17.5 ± 2.46 µM

— article PMC10743429, “Anti-Inflammatory Effects of Alphitolic Acid Isolated from Agrimonia coreana Nakai Extracts Are Mediated via the Inhibition of ICRAC Activity in T Cells” (International Journal of Molecular Sciences, 2023)
